# Data as given in paper PMC8914530 (Data in Brief, 2022).
# pIC50: −log10 of the molar value. Like-named read-outs stand apart in the source and are kept apart here.
# Columns and labels:
# [1] = target: T1, CYP2B6 (Homo sapiens, UniProt P20813); assay: CYP2B6 Vivid CYP450 Blue fluorescent inhibition assay; format: biochemical; conditions: for IC50 Ratio: ratio of the IC50 values from the two CYPs, + indicates greater affinity for CYP2B6, – greater affinity for CYP3A4; for CYP2B6 Hillslope: variable slope sigmoidal fit, GraphPad Prism 7.0
# T1 sequence (P20813 1-491): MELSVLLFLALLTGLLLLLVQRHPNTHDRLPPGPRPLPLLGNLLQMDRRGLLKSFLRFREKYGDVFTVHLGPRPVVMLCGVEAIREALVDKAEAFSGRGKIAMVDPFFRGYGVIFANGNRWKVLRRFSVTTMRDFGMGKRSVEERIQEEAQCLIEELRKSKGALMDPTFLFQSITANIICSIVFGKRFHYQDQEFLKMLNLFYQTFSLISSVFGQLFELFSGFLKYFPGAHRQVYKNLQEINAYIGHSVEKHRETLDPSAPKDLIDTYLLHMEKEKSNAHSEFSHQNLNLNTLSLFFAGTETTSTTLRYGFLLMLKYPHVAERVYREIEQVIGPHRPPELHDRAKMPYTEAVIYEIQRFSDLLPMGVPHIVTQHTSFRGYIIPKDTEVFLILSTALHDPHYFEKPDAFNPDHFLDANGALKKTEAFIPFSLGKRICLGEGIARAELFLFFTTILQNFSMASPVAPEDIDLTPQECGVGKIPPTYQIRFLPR
# [2] = target: CYP3A4 (Homo sapiens, UniProt P08684); assay: CYP3A4 Vivid CYP450 Red fluorescent inhibition assay; format: biochemical; conditions: for CYP3A4 Hillslope: variable slope sigmoidal fit, GraphPad Prism 7.0
# Chain of CYP3A4 (P08684 whole entry): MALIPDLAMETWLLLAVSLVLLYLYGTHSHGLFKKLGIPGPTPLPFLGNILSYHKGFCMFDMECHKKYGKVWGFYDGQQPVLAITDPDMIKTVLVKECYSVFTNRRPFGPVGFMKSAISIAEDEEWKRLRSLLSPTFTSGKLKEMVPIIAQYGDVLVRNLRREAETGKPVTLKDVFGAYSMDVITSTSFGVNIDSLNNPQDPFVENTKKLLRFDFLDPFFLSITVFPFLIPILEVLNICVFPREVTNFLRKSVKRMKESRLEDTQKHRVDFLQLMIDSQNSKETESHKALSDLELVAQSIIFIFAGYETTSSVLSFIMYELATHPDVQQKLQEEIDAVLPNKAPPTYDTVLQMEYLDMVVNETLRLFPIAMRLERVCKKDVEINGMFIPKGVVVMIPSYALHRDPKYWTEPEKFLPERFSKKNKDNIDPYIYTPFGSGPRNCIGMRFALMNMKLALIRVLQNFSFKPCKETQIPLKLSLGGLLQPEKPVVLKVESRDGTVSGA
Compound,pIC50 [1],IC50 Ratio [1],CYP2B6 Hillslope [1],pIC50 [2],CYP3A4 Hillslope [2],"pIC50 ([2]; read-out: CYP3A4 IC50, CYP3A4-transfected baculosomes, concentration-response, n = 3–12)"
CCOP(=S)(OCC)Oc1nc(Cl)c(Cl)cc1Cl [Chlorpyrifos],8.04,+30.4,−2.09,6.55,–,–
CCOP(=S)(OCC)Oc1ccc([N+](=O)[O-])cc1 [Parathion],7.59,+28.03,−1.13,6.14,−0.094,–
CCCCCCCCCCCCCCCC(=O)O [Palmitic acid],–,–,–,1.70,–,–
CC/C=C\C/C=C\C/C=C\CCCCCCCC(=O)O [α-Linolenic acid],5.14,–,−1.45,5.39,−0.701,–
Oc1cc(Cl)ccc1Oc1ccc(Cl)cc1Cl [Triclosan],6.03,–,−1.30,–,−1.46,–
CCNc1nc(Cl)nc(NC(C)C)n1 [Atrazine],6.84,–,−0.34,–,–,–
O=S1OCC2C(CO1)C1(Cl)C(Cl)=C(Cl)C2(Cl)C1(Cl)Cl (stereo not drawn) [Endosulfan],8.52,–,−0.66,8.34,−0.261,–
C[C@H](CCC(=O)O)[C@H]1CC[C@H]2[C@@H]3CC[C@@H]4C[C@H](O)CC[C@]4(C)[C@H]3CC[C@]12C [Lithocholic acid],5.61,–,−0.51,–,–,–
"Clc1ccccc1CN1CCc2sccc2C1 [Ticlopidine, reference compound]",–,–,−0.95,–,–,–
CC1(C)C(C=C(Cl)Cl)C1C(=O)OC(C#N)c1cccc(Oc2ccccc2)c1 (stereo not drawn) [Cypermethrin],2.22,–,−0.79,–,–,–
CCCCCCCC/C=C\CCCCCCCC(=O)O [Oleic acid],5.03,–,−2.45,–,–,–
CCOP(=S)(OCC)Oc1cc(C)nc(C(C)C)n1 [Diazinon],7.12,–,−1.51,–,−2.52,–
CC/C=C\C/C=C\C/C=C\C/C=C\C/C=C\C/C=C\CCC(=O)O [Docosahexaenoic acid],5.69,–,−1.22,5.29,−5.0,–
CCCCC/C=C\C/C=C\CCCCCCCC(=O)O [Linoleic acid],5.04,–,−0.69,4.74,−4.46,–
Nonylphenol,–,–,−1.21,–,−1.02,5.20
C[C@]12CC[C@@H]3c4ccc(O)cc4CC[C@H]3[C@@H]1CC[C@@H]2O [Estradiol],4.37,–,−0.33,5.56,−0.903,–
CCCCC/C=C\C/C=C\C/C=C\C/C=C\CCCC(=O)O [Arachidonic acid],5.98,–,−0.59,4.86,−4.08,–
C[C@]12CC[C@H]3[C@@H](CCC4=CC(=O)CC[C@@]43C)[C@@H]1CC[C@@H]2O [Testosterone],4.04,–,−0.32,–,–,–
C[C@H](CCC(=O)O)[C@H]1CC[C@H]2[C@@H]3[C@H](O)C[C@@H]4C[C@H](O)CC[C@]4(C)[C@H]3CC[C@]12C [Chenodeoxycholic acid],4.31,–,−1.32,–,–,–
O=C(O)c1ccccc1C(=O)O [Phthalic acid],2.93,–,−1.71,–,–,–
CC(C)(c1ccc(O)cc1)c1ccc(O)cc1 [Bisphenol A],5.07,–,−2.65,–,–,–
